Laboratory results published in patent US7585895B2, “Therapeutic substituted cyclopentanes” (Allergan, Inc., priority 2005, dated 2009).

What was measured:
Format in all cases: cell-based
hEP3A/Gqi5 = target: T1, hEP3A/Gqi5 (Homo sapiens, UniProt P43115); assay: FLIPR calcium signal, EP3; conditions: HEK-293(EBNA); for EC50: read-out: Ca2+ Signal-EC50 (nM) EP3
T1 construct: expressed in transfected cells
T1 sequence (P43115 1-390): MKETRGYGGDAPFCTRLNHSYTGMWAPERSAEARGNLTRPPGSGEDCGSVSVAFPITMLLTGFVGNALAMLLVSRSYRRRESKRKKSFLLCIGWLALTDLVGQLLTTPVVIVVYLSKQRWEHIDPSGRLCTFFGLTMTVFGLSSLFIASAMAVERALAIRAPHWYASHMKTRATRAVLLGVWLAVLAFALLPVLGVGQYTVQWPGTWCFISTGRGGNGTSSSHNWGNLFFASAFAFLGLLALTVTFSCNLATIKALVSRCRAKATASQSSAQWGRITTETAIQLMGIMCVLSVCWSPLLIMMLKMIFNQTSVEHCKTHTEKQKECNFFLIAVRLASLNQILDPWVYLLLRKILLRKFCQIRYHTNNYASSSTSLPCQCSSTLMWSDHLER
Experimental: (§1) HEK-293(EBNA) cells, stably expressing one type or subtype of recombinant human prostaglandin receptors (prostaglandin receptors expressed: hDP/Gqs5; hEP1; hEP2/Gqs5; hEP3A/Gqi5; hEP4/Gqs5; hFP; hIP; hTP), were cultured in 100 mm culture dishes in high-glucose DMEM medium containing 10% fetal bovine serum, 2 mM 1-glutamine, 250 μg/ml geneticin (G418) and 200 μg/ml hygromycin B as selection markers, and 100 units/ml penicillin G, 100 μg/ml streptomycin and 0.25 μg/ml amphotericin B.
(§2) Cells were seeded at a density of 5×10^4 cells per well in Biocoat® Poly-D-lysine-coated black-wall, clear-bottom 96-well plates (Becton-Dickinson) and allowed to attach overnight in an incubator at 37° C. Cells were then washed two times with HBSS-HEPES buffer (Hanks Balanced Salt Solution without bicarbonate and phenol red, 20 mM HEPES, pH 7.4) using a Denley Cellwash plate washer (Labsystems). After 45 minutes of dye-loading in the dark, using the calcium-sensitive dye Fluo-4 AM at a final concentration of 2 μM, plates were washed four times with HBSS-HEPES buffer to remove excess dye leaving 100 μl in each well. Plates were re-equilibrated to 37° C. for a few minutes.
(§3) Cells were excited with an Argon laser at 488 nm, and emission was measured through a 510-570 nm bandwidth emission filter (FLIPR™, Molecular Devices, Sunnyvale, Calif.). Drug solution was added in a 50 μl volume to each well to give the desired final concentration. The peak increase in fluorescence intensity was recorded for each well. On each plate, four wells each served as negative (HBSS-HEPES buffer) and positive controls (standard agonists: BW245C (hDP); PGE2 (HEP1; hEP2/Gqs5; hEP3A/Gqi5; hEP4/Gqs5); PGF2α (hFP); carbacyclin (hIP); U-46619 (hTP), depending on receptor). The peak fluorescence change in each drug-containing well was then expressed relative to the controls.
(§4) Compounds were tested in a high-throughput (HTS) or concentration-response (CoRe) format. In the HTS format, forty-four compounds per plate were examined in duplicates at a concentration of 10^−5 M. To generate concentration-response curves, four compounds per plate were tested in duplicates in a concentration range between 10^−5 and 10^−11 M. The duplicate values were averaged. In either, HTS or CoRe format each compound was tested on at least 3 separate plates using cells from different passages to give an n≧3.

hTP = target: T2, hTP (Homo sapiens, UniProt P21731); assay: FLIPR calcium signal, TP; conditions: HEK-293(EBNA)
T2 construct: expressed in transfected cells
T2 sequence (P21731 1-343): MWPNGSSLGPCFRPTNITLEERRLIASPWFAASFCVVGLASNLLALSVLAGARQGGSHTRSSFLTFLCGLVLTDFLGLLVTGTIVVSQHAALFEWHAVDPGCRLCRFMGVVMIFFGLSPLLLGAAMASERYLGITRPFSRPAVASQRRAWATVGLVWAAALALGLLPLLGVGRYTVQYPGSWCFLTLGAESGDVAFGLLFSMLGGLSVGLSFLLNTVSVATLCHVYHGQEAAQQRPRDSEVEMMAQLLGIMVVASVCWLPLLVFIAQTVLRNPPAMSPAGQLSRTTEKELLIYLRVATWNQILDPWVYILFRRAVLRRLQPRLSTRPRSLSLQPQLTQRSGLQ
Experimental: as §1, §2, §3, §4

EP2 = EP2 (Homo sapiens, UniProt P43116); assay: cAMP assay, HEK-EBNA cells expressing EP2; design: expressed in transfected cells; host or cells: HEK-EBNA; conditions: value in parentheses in EP2 column, read-out: EP2 EC50 (nM), measurement of cAMP (data in parentheses)
Experimental: A 384-well drug plate was prepared to contain 6 test compounds, PGE2 and cAMP in 16 serial dilutions in triplicate, using a Biomek station. HEK-EBNA cells expressing a target PG receptor subtype (EP2 or EP4) were suspended in a stimulation buffer (HBSS, 0.1% BSA, 0.5 mM IBMX and 5 mM HEPES, pH 7.4) in a density of 10^4 cells/5 μl. The reaction was initiated by mixing 5 μL drug dilutions with 5 μl of HEK-EBNA cells in a well, carried out for 30 min at room temperature, and followed by the addition of 5 μl anti-cAMP acceptor beads in the control buffer with Tween-20 (25 mM NaCl, 0.03% Tween-20, 5 mM HEPES, pH7.4). After 30 min in the dark at room temperature, the mixtures were incubated with 15 μl biotinylated-cAMP/strepavidin donor beads in Lysis/Detection buffer (0.1% BSA, 0.3% Tween-20 and 5 mM HEPES, pH7.4) for 45 min at the room temperature. Fluorescence changes were read using a Fusion-alpha HT microplate reader.

hDP/Gqs5 = target: T3, hDP/Gqs5 (Homo sapiens, UniProt Q13258); assay: FLIPR calcium signal, DP; conditions: HEK-293(EBNA)
T3 construct: expressed in transfected cells
T3 sequence (Q13258 1-359): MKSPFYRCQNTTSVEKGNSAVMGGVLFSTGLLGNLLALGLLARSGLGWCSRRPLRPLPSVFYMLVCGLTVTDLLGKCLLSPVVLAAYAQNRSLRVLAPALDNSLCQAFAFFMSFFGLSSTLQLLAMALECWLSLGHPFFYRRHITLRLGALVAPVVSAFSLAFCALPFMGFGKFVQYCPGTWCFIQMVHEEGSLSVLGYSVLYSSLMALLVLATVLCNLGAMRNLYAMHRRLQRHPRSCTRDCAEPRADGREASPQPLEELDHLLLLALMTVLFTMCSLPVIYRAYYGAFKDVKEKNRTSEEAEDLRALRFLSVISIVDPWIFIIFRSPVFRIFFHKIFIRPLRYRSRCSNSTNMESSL
Experimental: as §1, §2, §3, §4

Sequence of EP2 (P43116 whole entry): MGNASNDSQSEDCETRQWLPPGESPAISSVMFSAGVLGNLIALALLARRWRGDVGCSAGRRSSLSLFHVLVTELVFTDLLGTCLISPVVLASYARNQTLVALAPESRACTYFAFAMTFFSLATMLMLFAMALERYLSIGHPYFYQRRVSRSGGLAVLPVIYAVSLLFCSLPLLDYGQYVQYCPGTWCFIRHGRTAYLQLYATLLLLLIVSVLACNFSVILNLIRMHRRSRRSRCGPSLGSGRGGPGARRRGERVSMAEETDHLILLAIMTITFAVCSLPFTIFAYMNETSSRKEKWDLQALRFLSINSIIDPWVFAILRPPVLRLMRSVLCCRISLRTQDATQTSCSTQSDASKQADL

EC50 (hEP3A/Gqi5) [nM] | Ca2+ Signal-EC50 (nM) TP (hTP) | EC50 (EP2) [nM] | Ca2+ Signal-EC50 (nM) DP (hDP/Gqs5) | Ca2+ Signal-EC50 (nM) EP3 (hEP3A/Gqi5) | Compound
1450 | not active | 8 | not active |  | CCCCCC(O)c1ccc([C@@H]2[C@@H](C/C=C\CCCC(=O)O)[C@H](F)C[C@H]2O)cc1 (mixture of isomers) [Entry 8, (Z)-7-{(1R,2S,3R,5R)-5-Fluoro-3-hydroxy-2-[4-(1-hydroxy-hexyl)-phenyl]-cyclopentyl}-hept-5-enoic acid]
456 | not active | 3 | not active |  | CCCCCC(O)c1ccc([C@@H]2[C@@H](C/C=C\CCCC(=O)O)[C@H](Cl)C[C@H]2O)cc1 (mixture of isomers) [Entry 11, (Z)-7-{(1R,2S,3R,5R)-5-Chloro-3-hydroxy-2-[4-(1-hydroxy-hexyl)-phenyl]-cyclopentyl}-hept-5-enoic acid]
 | not active | 495 | not active | not active | O=C(O)CCC/C=C\C[C@@H]1[C@@H](c2ccc(C(O)CC3CCCCC3)cc2)[C@H](O)C[C@H]1Cl (mixture of isomers) [Entry 17, (Z)-7-{(1R,2S,3R,5R)-5-Chloro-2-[4-(2-cyclohexyl-1-hydroxy-ethyl)-phenyl]-3-hydroxy-cyclopentyl}-hept-5-enoic acid]
4450 | not active | > 10000 | not active |  | CC(C)(C)CCCC(O)c1ccc([C@@H]2[C@@H](CCCCCCC(=O)O)[C@H](Cl)C[C@H]2O)cc1 (mixture of isomers) [Entry 20, 7-{(1R,2S,3R,5R)-5-Chloro-3-hydroxy-2-[4-(1-hydroxy-5,5-dimethyl-hexyl)-phenyl]-cyclopentyl}-heptanoic acid]
 | not active | 14 | not active | not active | O=C(O)CCC/C=C\C[C@@H]1[C@@H](c2ccc(C(O)Cc3ccccc3)cc2)[C@H](O)C[C@H]1Cl (mixture of isomers) [Entry 21, (Z)-7-{(1R,2S,3R,5R)-5-Chloro-3-hydroxy-2-[4-(1-hydroxy-2-phenyl-ethyl)-phenyl]-cyclopentyl}-hept-5-enoic acid]
 | not active | 10 | not active | not active | CCCCC(O)c1ccc([C@@H]2[C@@H](C/C=C\CCCC(=O)O)[C@H](Cl)C[C@H]2O)cc1 (mixture of isomers) [Entry 27, (Z)-7-{(1R,2S,3R,5R)-5-Chloro-3-hydroxy-2-[4-(1-hydroxy-pentyl)-phenyl]-cyclopentyl}-hept-5-enoic acid]
2810 | not active | 9 | not active |  | CCCCC(O)C(C)(C)c1ccc([C@@H]2[C@@H](C/C=C\CCCC(=O)O)[C@H](Cl)C[C@H]2O)cc1 (mixture of isomers) [Entry 32, (Z)-7-{(1R,2S,3R,5R)-5-Chloro-3-hydroxy-2-[4-(2-hydroxy-1,1-dimethyl-hexyl)-phenyl]-cyclopentyl}-hept-5-enoic acid]
 | not active | 38 | not active | not active | CCCCCC(O)c1ccc([C@@H]2[C@@H](C/C=C\CCCC(=O)O)[C@H](Cl)C[C@H]2O)cc1 (single isomer, unassigned) [Entry 12]
3000 | not active | 3 | not active |  | CCCCCC(O)c1ccc([C@@H]2[C@@H](C/C=C\CCCC(=O)O)[C@H](Cl)C[C@H]2O)cc1 (single isomer, unassigned) [Entry 13]
348 | not active | 2 | not active |  | CCCCCC(O)c1ccc([C@@H]2[C@@H](CCCc3ccc(C(=O)O)s3)[C@H](Cl)C[C@H]2O)cc1 (stereo partly drawn) [Entry 2, 5-(3-{(1R,2S,3R,5R)-5-Chloro-3-hydroxy-2-[4-(1-hydroxy-hexyl)-phenyl]-cyclopentyl}-propyl)-thiophene-2-carboxylic acid]
4670 | not active | 56 | not active |  | CCCCCC(O)c1ccc([C@@H]2[C@@H](Cc3cccc(CCC(=O)O)c3)[C@H](Cl)C[C@H]2O)cc1 (stereo partly drawn) [Entry 3, 3-(3-{(1R,2S,3R,5R)-5-Chloro-3-hydroxy-2-[4-(1-hydroxy-hexyl)-phenyl]-cyclopentylmethyl}-phenyl)-propionic acid]
 | not active | 69 | not active | not active | CCCC1(C(O)c2cccc([C@@H]3[C@@H](Cc4cccc(CCC(=O)O)c4)[C@H](Cl)C[C@H]3O)c2)CCC1 (stereo partly drawn) [Entry 4, 3-[3-((1R,2S,3R,5R)-5-Chloro-3-hydroxy-2-{3-[hydroxy-(1-propyl-cyclobutyl)-methyl]-phenyl}-cyclopentylmethyl)-phenyl]-propionic acid]
 | not active | 9 |  | not active | O=C(O)CCC/C=C\C[C@@H]1[C@@H](c2ccc(C(O)c3ccccc3)cc2)[C@H](O)C[C@H]1Cl (stereo partly drawn) [Entry 28, (Z)-7-{(1R,2S,3R,5R)-5-Chloro-3-hydroxy-2-[4-(hydroxy-phenyl-methyl)-phenyl]-cyclopentyl}-hept-5-enoic acid]
